Experimental data from patent US9149038B2, “4-amino-6-(heterocyclic)picolinates and 6-amino-2-(heterocyclic)pyrimidine-4-carboxylates and their use as herbicides” (Dow AgroSciences LLC, priority 2013, dated 2015).
Read-outs that look alike come from different tables or passages of the source.

System: Wheat and Barley and weed species
Assay: Post-Emergent Test III: postemergent herbicidal activity in wheat and barley, visual rating after 21 d and probit GR20/GR50/GR80/GR90 (Tables 9-13)
Type: in vivo
Details: for pest or weed control at 17.5 g/ha / pest or weed control at 35 g/ha / pest or weed control at 70 g/ha: post-emergence, 504 h
Procedure, shortened: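 Greenhouse plants (~18/17 °C, 14 h photoperiod) at second–third true leaf stage sprayed at 187 L/ha with a high rate and ½× to 1/16× serial dilutions. Visual injury 0–100% versus solvent-blank controls scored at 21 d; GR20, GR50, GR80 and GR90 derived by probit analysis across rates.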

In the case of Nc1c(F)c(-c2ccc(Cl)c3c2OC(F)(F)O3)nc(C(=O)O)c1Cl [Compound 82], the “Visual Growth Reduction (%) 21 Days After Application CIRAR” value (CIRAR Canada thistle (Cirsium arvense), 17.5 g ai/ha) is reported as “B (85-94)”, the “Visual Growth Reduction (%) 21 Days After Application CIRAR” value (CIRAR Canada thistle (Cirsium arvense), 35 g ai/ha) is reported as “B (85-94)” and the “Visual Growth Reduction (%) 21 Days After Application CIRAR” value (CIRAR Canada thistle (Cirsium arvense), 70 g ai/ha) is reported as “B (85-94)”. The “GR50 CIRAR” value (CIRAR Canada thistle (Cirsium arvense), growth reduction of 50%, probit analysis) was 1 g ai/ha, the “GR80 CIRAR” value (CIRAR Canada thistle (Cirsium arvense), growth reduction of 80%, probit analysis) was 10 g ai/ha and the “GR90 CIRAR” value (CIRAR Canada thistle (Cirsium arvense), growth reduction of 90%, probit analysis) was 34 g ai/ha. For the same compound, the “Visual Growth Reduction (%) 21 Days After Application GALAP” value (GALAP cleavers (Galium aparine), 17.5 g ai/ha) was “D (60-74)”, the “Visual Growth Reduction (%) 21 Days After Application GALAP” value (GALAP cleavers (Galium aparine), 35 g ai/ha) was “B (85-94)” and the “Visual Growth Reduction (%) 21 Days After Application GALAP” value (GALAP cleavers (Galium aparine), 70 g ai/ha) was “B (85-94)”. The “GR50 GALAP” value (GALAP cleavers (Galium aparine), growth reduction of 50%, probit analysis) was 10 g ai/ha, the “GR80 GALAP” value (GALAP cleavers (Galium aparine), growth reduction of 80%, probit analysis) was 33 g ai/ha and the “GR90 GALAP” value (GALAP cleavers (Galium aparine), growth reduction of 90%, probit analysis) was 64 g ai/ha. For the same compound, the “GR20 HORVS” value (HORVS barley, spring (crop), growth reduction of 20%, probit analysis) was 7 g ai/ha, the pest or weed control at 17.5 g/ha (Hordeum vulgare, HORVS barley, spring (crop), 17.5 g ai/ha, read-out: Visual Growth Reduction (%) 21 Days After Application HORVS) was 30 to 44% and the pest or weed control at 35 g/ha (Hordeum vulgare, HORVS barley, spring (crop), 35 g ai/ha, read-out: Visual Growth Reduction (%) 21 Days After Application HORVS) was 60 to 74%. For the same compound, the pest or weed control at 70 g/ha (Hordeum vulgare, HORVS barley, spring (crop), 70 g ai/ha, read-out: Visual Growth Reduction (%) 21 Days After Application HORVS) was 75 to 84%, the “Visual Growth Reduction (%) 21 Days After Application KCHSC” value (KCHSC kochia (Kochia scoparia), 17.5 g ai/ha) was “D (60-74)” and the “Visual Growth Reduction (%) 21 Days After Application KCHSC” value (KCHSC kochia (Kochia scoparia), 35 g ai/ha) was “C (75-84)”. For the same compound, the “Visual Growth Reduction (%) 21 Days After Application KCHSC” value (KCHSC kochia (Kochia scoparia), 70 g ai/ha) was “C (75-84)”, the “GR50 KCHSC” value (KCHSC kochia (Kochia scoparia), growth reduction of 50%, probit analysis) was 2 g ai/ha and the “GR80 KCHSC” value (KCHSC kochia (Kochia scoparia), growth reduction of 80%, probit analysis) was 83 g ai/ha. For the same compound, the “GR90 KCHSC” value (KCHSC kochia (Kochia scoparia), growth reduction of 90%, probit analysis) was over 140 g ai/ha, the “Visual Growth Reduction (%) 21 Days After Application LAMPU” value (LAMPU purple deadnettle (Lamium purpureum), 17.5 g ai/ha) was “G (0-29)” and the “Visual Growth Reduction (%) 21 Days After Application LAMPU” value (LAMPU purple deadnettle (Lamium purpureum), 35 g ai/ha) was “G (0-29)”. The “Visual Growth Reduction (%) 21 Days After Application LAMPU” value (LAMPU purple deadnettle (Lamium purpureum), 70 g ai/ha) was “F (30-44)”, the “GR50 LAMPU” value (LAMPU purple deadnettle (Lamium purpureum), growth reduction of 50%, probit analysis) was 89 g ai/ha and the “GR80 LAMPU” value (LAMPU purple deadnettle (Lamium purpureum), growth reduction of 80%, probit analysis) was 131 g ai/ha. The “GR90 LAMPU” value (LAMPU purple deadnettle (Lamium purpureum), growth reduction of 90%, probit analysis) was over 140 g ai/ha, the “Visual Growth Reduction (%) 21 Days After Application MATCH” value (MATCH wild chamomile (Matricaria recutita L.), 17.5 g ai/ha) was “C (75-84)” and the “Visual Growth Reduction (%) 21 Days After Application MATCH” value (MATCH wild chamomile (Matricaria recutita L.), 35 g ai/ha) was “C (75-84)”. The “Visual Growth Reduction (%) 21 Days After Application MATCH” value (MATCH wild chamomile (Matricaria recutita L.), 70 g ai/ha) was “B (85-94)”, the “GR50 MATCH” value (MATCH wild chamomile (Matricaria recutita L.), growth reduction of 50%, probit analysis) was 18 g ai/ha and the “GR80 MATCH” value (MATCH wild chamomile (Matricaria recutita L.), growth reduction of 80%, probit analysis) was 35 g ai/ha. For the same compound, the “GR90 MATCH” value (MATCH wild chamomile (Matricaria recutita L.), growth reduction of 90%, probit analysis) was 49 g ai/ha, the “Visual Growth Reduction (%) 21 Days After Application PAPRH” value (PAPRH common poppy (Papaver rhoeas), 17.5 g ai/ha) was “G (0-29)” and the “Visual Growth Reduction (%) 21 Days After Application PAPRH” value (PAPRH common poppy (Papaver rhoeas), 35 g ai/ha) was “G (0-29)”. The “Visual Growth Reduction (%) 21 Days After Application PAPRH” value (PAPRH common poppy (Papaver rhoeas), 70 g ai/ha) was “F (30-44)”, the “GR50 PAPRH” value (PAPRH common poppy (Papaver rhoeas), growth reduction of 50%, probit analysis) was 113 g ai/ha and the “GR80 PAPRH” value (PAPRH common poppy (Papaver rhoeas), growth reduction of 80%, probit analysis) was over 140 g ai/ha. For the same compound, the “GR90 PAPRH” value (PAPRH common poppy (Papaver rhoeas), growth reduction of 90%, probit analysis) was over 140 g ai/ha, the “Visual Growth Reduction (%) 21 Days After Application SASKR” value (SASKR Russian thistle (Salsola iberica), 17.5 g ai/ha) was “B (85-94)” and the “Visual Growth Reduction (%) 21 Days After Application SASKR” value (SASKR Russian thistle (Salsola iberica), 35 g ai/ha) was “B (85-94)”. The “Visual Growth Reduction (%) 21 Days After Application SASKR” value (SASKR Russian thistle (Salsola iberica), 70 g ai/ha) was “B (85-94)”, the “GR50 SASKR” value (SASKR Russian thistle (Salsola iberica), growth reduction of 50%, probit analysis) was 1 g ai/ha and the “GR80 SASKR” value (SASKR Russian thistle (Salsola iberica), growth reduction of 80%, probit analysis) was 10 g ai/ha. For the same compound, the “GR90 SASKR” value (SASKR Russian thistle (Salsola iberica), growth reduction of 90%, probit analysis) was 32 g ai/ha, the “Visual Growth Reduction (%) 21 Days After Application SINAR” value (SINAR wild mustard (Sinapis arvensis), 17.5 g ai/ha) was “A (95-100)” and the “Visual Growth Reduction (%) 21 Days After Application SINAR” value (SINAR wild mustard (Sinapis arvensis), 35 g ai/ha) was “A (95-100)”. For the same compound, the “Visual Growth Reduction (%) 21 Days After Application SINAR” value (SINAR wild mustard (Sinapis arvensis), 70 g ai/ha) was “A (95-100)”, the “GR50 SINAR” value (SINAR wild mustard (Sinapis arvensis), growth reduction of 50%, probit analysis) was 0.02 g ai/ha and the “GR80 SINAR” value (SINAR wild mustard (Sinapis arvensis), growth reduction of 80%, probit analysis) was 0.5 g ai/ha. The “GR90 SINAR” value (SINAR wild mustard (Sinapis arvensis), growth reduction of 90%, probit analysis) was 2 g ai/ha, the “GR20 TRZAS” value (TRZAS wheat, spring (crop), growth reduction of 20%, probit analysis) was 4 g ai/ha and the pest or weed control at 17.5 g/ha (Triticum aestivum, TRZAS wheat, spring (crop), 17.5 g ai/ha, read-out: Visual Growth Reduction (%) 21 Days After Application TRZAS) was 60 to 74%. The pest or weed control at 35 g/ha (Triticum aestivum, TRZAS wheat, spring (crop), 35 g ai/ha, read-out: Visual Growth Reduction (%) 21 Days After Application TRZAS) was 60 to 74%, the pest or weed control at 70 g/ha (Triticum aestivum, TRZAS wheat, spring (crop), 70 g ai/ha, read-out: Visual Growth Reduction (%) 21 Days After Application TRZAS) was 75 to 84% and the “Visual Growth Reduction (%) 21 Days After Application VERPE” value (VERPE bird's-eye speedwell (veronica persica), 17.5 g ai/ha) was “G (0-29)”. The “Visual Growth Reduction (%) 21 Days After Application VERPE” value (VERPE bird's-eye speedwell (veronica persica), 35 g ai/ha) was “G (0-29)”, the “Visual Growth Reduction (%) 21 Days After Application VERPE” value (VERPE bird's-eye speedwell (veronica persica), 70 g ai/ha) was “G (0-29)” and the “GR50 VERPE” value (VERPE bird's-eye speedwell (veronica persica), growth reduction of 50%, probit analysis) was over 140 g ai/ha. For the same compound, the “GR80 VERPE” value (VERPE bird's-eye speedwell (veronica persica), growth reduction of 80%, probit analysis) was over 140 g ai/ha, the “GR90 VERPE” value (VERPE bird's-eye speedwell (veronica persica), growth reduction of 90%, probit analysis) was over 140 g ai/ha and the “Visual Growth Reduction (%) 21 Days After Application VIOTR” value (VIOTR wild pansy (Viola tricolor), 17.5 g ai/ha) was “E (45-59)”. The “Visual Growth Reduction (%) 21 Days After Application VIOTR” value (VIOTR wild pansy (Viola tricolor), 35 g ai/ha) was “D (60-74)”, the “Visual Growth Reduction (%) 21 Days After Application VIOTR” value (VIOTR wild pansy (Viola tricolor), 70 g ai/ha) was “D (60-74)” and the “GR50 VIOTR” value (VIOTR wild pansy (Viola tricolor), growth reduction of 50%, probit analysis) was 31 g ai/ha. The “GR80 VIOTR” value (VIOTR wild pansy (Viola tricolor), growth reduction of 80%, probit analysis) was 62 g ai/ha and the “GR90 VIOTR” value (VIOTR wild pansy (Viola tricolor), growth reduction of 90%, probit analysis) was 90 g ai/ha.
